Laboratory results taken from patent US5627194A, “Anti-viral guanidino-substituted compounds” (Allelix Biopharmaceuticals Inc., priority 1994, dated 1997).
One block for each compound: values may come before it.

How the values were obtained:
HSV-1, strain F = experiment: Plaque reduction assay, inhibition of HSV-1 strain F replication by the compound of example 1 (Vero cells); type: cell-based, herpes simplex virus type 1; settings: for Plaque number: Vero, 24 h pretreatment, 48 h, untreated 19
From the text: (§1) The present invention provides novel di-guanidino-substituted compounds having anti-herpesvirus activity. The term "anti-herpesvirus" as used herein refers to those compounds which inhibit replication of a member of the herpesvirus family as determined by conventional cell culture assay, such as the well established plaque reduction assay. In the context of the plaque reduction assay, for example, the anti-herpesvirus nature of a compound in accordance with the present invention is indicated by a reduction in plaque count, or a reduction in plaque size, following treatment of virally infected cells with the given compound, relative to a virally infected, untreated control.
The compound of example 1 was formulated as a 10 mM stock in water for in vitro and cell culture procedures. The stock was then diluted into buffers used for specific assays, or into cell culture media.
(§2) The following procedures were then used to determine inhibitory effects of the compound of example 1 on the replication of HSV-1, strain F. First, confluent monolayers of the African green monkey kidney cell line, Vero (ATCC 733-VR CCL 81) in 24 well cell culture plates were pretreated with specified concentrations (0 μM, 0.5 μM, 1 μM, 5 μM, 10 μM, 20 μM and 50 μM) of ALX-19 at 37° C., 5% CO2 for 24 hours. This was accomplished by diluting the stock solution of the test compound in growth medium (10% fetal bovine serum, 100 IU/ml penicillin, 100 μg/ml streptomycin and 0.02 mg/ml gentamicin in Dulbecco's MEM (DMEM)) used to overlay the monolayers.
After pretreatment with the test compound, the monolayers were overlaid with 0.1 ml of diluted virus stock at about 20 pfu/well. Virus was then allowed to absorb for 1 hours at 37° C. The virus inoculum was removed and the monolayers were overlaid with DMEM containing 2% FBS and the specified concentrations of the test compound. Virus was next allowed to replicate for 48 hours and then the monolayers were fixed and stained with a solution of 1% crystal violet in 70% ethanol:formalin:acetic acid (20:2:1). Finally, plaques (each representing a single infectious virus particule or plaque forming unit (PFU) were counted and checked microscopically. The results were as follows: […]

herpesvirus [1] = type: cell-based
Experimental: The therapeutic index of this compound, i.e. the ratio of its cytotoxicity to its viral toxicity, was determined to be 12.29. The following table illustrates results obtained in inhibition and cytotoxicity studies of herpesvirus replication by the compounds exemplified.

herpesvirus [2] = experiment: Inhibition studies of herpesvirus replication by the compounds exemplified; type: cell-based; settings: summary table, read-out: ED50 (the source's name)
Experimental: as §2
(§3) After pretreatment with the test compound, the monolayers were overlaid with 0.1 ml of diluted virus stock at about 20 pfu/well. Virus was then allowed to absorb for 1 hours at 37° C. The virus inoculum was removed and the monolayers were overlaid with DMEM containing 2% FBS and the specified concentrations of the test compound. Virus was next allowed to replicate for 48 hours and then the monolayers were fixed and stained with a solution of 1% crystal violet in 70% ethanol:formalin:acetic acid (20:2:1). Finally, plaques (each representing a single infectious virus particule or plaque forming unit (PFU) were counted and checked microscopically. The results were as follows:
(§4) A procedure similar to that described in Example 3 was conducted to determine the anti-viral activity of the compound of example 2. In the case, however, the concentrations of the test compound used to pretreat the MRC-5 cells were 0 μM, 1 μM, 10 μM, 100 μM and 500 μM, respectively. The following results were obtain on infection and incubation of the treated cells:
The following table illustrates results obtained in inhibition and cytotoxicity studies of herpesvirus replication by the compounds exemplified.

herpes simplex virus = experiment: Plaque reduction assay, inhibition of herpesvirus replication by the compound of example 2 (MRC-5 cells); type: cell-based; settings: for Plaque number: untreated 19
From the text: as §1, §2, §3
as §4, with “cells: […]” for “cells:”

Compound: N=C(N)NCCCOC[C@H]1OC(OCCCNC(=N)N)CC[C@@H]1OCCCNC(=N)N (stereo partly drawn) [Example 2, 1,4,6-tri-O-propylguanidine-2,3-dideoxy-hexoside]
- Plaque number (herpes simplex virus; 0.5 μM, MRC-5 cells): 18
- Plaque number (herpes simplex virus; 1 μM, MRC-5 cells): 16
- Plaque number (herpes simplex virus; 5 μM, MRC-5 cells): 11
- Plaque number (herpes simplex virus; 10 μM, MRC-5 cells): 9
- Plaque number (herpes simplex virus; 20 μM, MRC-5 cells): 6
- Plaque number (herpes simplex virus; 50 μM, MRC-5 cells): 5
- EC50 (herpes simplex virus; MRC5, MRC-5 cells, plaque reduction, read-out: ED50 (the source's name)): 10.5 µM
- reduction in the replication of herpes simplex virus (herpes simplex virus; concentration of 1 μM or more): significant reduction
- TI (herpesvirus [1]): > 50
- therapeutic index, ratio of cytotoxicity to viral toxicity (herpesvirus [1]): > 50
- EC50 (herpesvirus [2]): 10.5 µM

Compound: CCOCCOCCOC1CC[C@H](OCCCNC(=N)N)[C@@H](COCCCNC(=N)N)O1 (stereo partly drawn) [Example 8, (ethoxy-ethoxy-ethyl)-4,6-di-O-propylguanidine-2,3-dideoxy-d-erythrohexoside]
- TI (herpesvirus [1]): > 20
- EC50 (herpesvirus [2]): 10 µM

Compound: N=C(N)NCCCOC[C@H]1OCCC[C@@H]1OCCCNC(=N)N [Example 9, 4,6-di-O-propylguanidine-3-deoxy dihydro-D-glucal]
- TI (herpesvirus [1]): ~ 350
- EC50 (herpesvirus [2]): ~50 µM

Compound: N=C(N)NCCCOC[C@H]1OC(OCCO)CC[C@@H]1OCCCNC(=N)N (stereo partly drawn) [Example 10, hydroxyethyl-4,6-di-O-propylguanidine-2,3-dideoxy-hexoside]
- TI (herpesvirus [1]): 31.22
- EC50 (herpesvirus [2]): 10.8 µM

Now those with a lower EC50 (herpesvirus [2]), led by results:

- IC50 (HSV-1, strain F; Human alphaherpesvirus 1, HSV-1 strain F, Vero cells, plaque reduction): 2.6 µM
- TI (herpesvirus [1]): 12.29
- EC50 (herpesvirus [2]): 2.6 µM
Compound: COC1CC[C@H](OCCCNC(=N)N)[C@@H](COCCCNC(=N)N)O1 (stereo partly drawn) [Example 1, Methyl-4,6-di-O-propylguanidine-2,3-dideoxy-α,β-D-erythro-hexoside]
- Plaque number (HSV-1, strain F; 0.5 μM, HSV-1 strain F): 18
- Plaque number (HSV-1, strain F; 1 μM, HSV-1 strain F): 16
- Plaque number (HSV-1, strain F; 5 μM, HSV-1 strain F): 6
- Plaque number (HSV-1, strain F; 10 μM, HSV-1 strain F): 4
- Plaque number (HSV-1, strain F; 20 μM, HSV-1 strain F): 1
- reduction in the replication of herpes simplex virus (HSV-1, strain F; concentration of more than 1 μM): significant reduction
- therapeutic index, ratio of cytotoxicity to viral toxicity (herpesvirus [1]): 12.29

- TI (herpesvirus [1]): 9.96
- EC50 (herpesvirus [2]): 2.5 µM
Compound: CCOC1CC[C@H](OCCCNC(=N)N)[C@@H](COCCCNC(=N)N)O1 (stereo partly drawn) [Example 5, ethyl-4,6-di-O-propylguanidine-2,3-dideoxy-hexoside]

- TI (herpesvirus [1]): 17.28
- EC50 (herpesvirus [2]): 9.3 µM
Compound: CCOC1CC[C@H](OCCCCCNC(=N)N)[C@@H](COCCCCCNC(=N)N)O1 (stereo partly drawn) [Example 6, ethyl-4,6-di-O-pentylguanidine-2,3-dideoxy-hexoside]

- TI (herpesvirus [1]): 5.17
- EC50 (herpesvirus [2]): 6.45 µM
Compound: CC(C)OC1CC[C@H](OCCCCCNC(=N)N)[C@@H](COCCCCCNC(=N)N)O1 (stereo partly drawn) [Example 7, isopropyl-4,6-di-O-pentylguanidine-2,3-dideoxy-D-erythro-hexoside]
